Test results: patent publication US10604494B2, “Acylated N-(1 ,2,5-oxadiazol-3-yl)-, N-(1,3,4-oxadiazol-2-yl)-, N-(tetrazol-5-yl)- and N-(triazol-5-yl)-aryl carboxamides, and use thereof as herbicides” (Bayer CropScience Aktiengesellschaft, priority 2015, dated 2020)

Columns and labels:
Assay type in all cases: in vivo
Veronica persica [1] = experiment: Pre-emergence herbicidal action against harmful plants; conditions: 504 h, application rate 320 g/ha, scored visually after 3 weeks vs untreated controls, 100% = plants have died, 0% = like control plants, read-out: efficacy (herbicidal activity in percent) against Veronica persica
From the text: (§1) 1. Pre-Emergence Herbicidal Action Against Harmful Plants Seeds of monocotyledonous and dicotyledonous weed plants and crop plants are laid out in sandy loam in wood-fiber pots and covered with soil. The compounds of the invention, formulated in the form of wettable powders (WP) or as emulsion concentrates (EC), are then applied to the surface of the covering soil in the form of an aqueous suspension or emulsion at a water application rate equating to 600 to 800 I/ha, with addition of 0.2% wetting agent. After the treatment, the pots are placed in a greenhouse and kept under good growth conditions for the trial plants. The damage to the test plants is scored visually after a test period of 3 weeks by comparison with untreated controls (herbicidal activity in percent (%): 100% activity=the plants have died, 0% activity=like control plants). In this case, for example, compound Nos. 1-086, 1-028, 1-206, 1-447, 1-448, 1-449, 1-454, 1-458, 1-470, 1-471, 1-472, 1-477, 1-487, 2-477, 2-480, 2-500, 3-143, 3-475, 3-491, 4-188, 4-495, 4-430, 4-496, 13-001, 13-031 and 13-032, at an application rate of 320 g/ha, each show at least 80% efficacy against Abutilon theophrasti and Veronica persica.

Abutilon theophrasti [2] = experiment: as above; conditions: 504 h, application rate 320 g/ha, scored visually after 3 weeks vs untreated controls, 100% = plants have died, 0% = like control plants, read-out: efficacy (herbicidal activity in percent) against Abutilon theophrasti
From the text: as §1

Veronica persica [3] = experiment: Post-emergence herbicidal action against harmful plants; conditions: 504 h, one-leaf stage, application rate 80 g/ha, assessed visually after about 3 weeks vs untreated controls, 100% = plants have died, 0% = like control plants, read-out: efficacy (herbicidal action in percent) against Veronica persica
Protocol: (§2) 2. Post-Emergence Herbicidal Action Against Harmful Plants Seeds of monocotyledonous and dicotyledonous weed and crop plants are laid out in sandy loam soil in wood-fiber pots, covered with soil and cultivated in a greenhouse under good growth conditions. 2 to 3 weeks after sowing, the test plants are treated at the one-leaf stage. The compounds of the invention, formulated in the form of wettable powders (WP) or as emulsion concentrates (EC), are then sprayed onto the green parts of the plants in the form of an aqueous suspension or emulsion at a water application rate equating to 600 to 800 I/ha, with addition of 0.2% wetting agent. After the test plants have been left to stand in the greenhouse under optimal growth conditions for about 3 weeks, the action of the preparations is assessed visually in comparison to untreated controls (herbicidal action in percent (%): 100% activity=the plants have died, 0% activity=like control plants). In this case, for example, compound Nos. 1-028, 1-085, 1-086, 1-206, 1-447, 1-448, 1-449, 1-453, 1-457, 1-460, 1-470, 1-471, 1-472, 1-487, 2-500, 3-143, 3-146, 3-487, 3-491, 3-492, 4-144, 4-188, 13-001, 13-031 and 13-032, at an application rate of 80 g/ha, each show at least 80% efficacy against Abutilon theophrasti and Veronica persica.

Abutilon theophrasti [4] = experiment: as above; conditions: 504 h, one-leaf stage, application rate 80 g/ha, assessed visually after about 3 weeks vs untreated controls, 100% = plants have died, 0% = like control plants, read-out: efficacy (herbicidal action in percent) against Abutilon theophrasti
Protocol: as §2

CC(C)c1c(C(=O)N(C(=O)c2ccc(C(F)(F)F)c(S(C)(=O)=O)c2C(C)C)c2nnnn2C)ccc(C(F)(F)F)c1S(C)(=O)=O [1-206]
≥ 80%: pest or weed control at 320 g/ha (Veronica persica [1]) | pest or weed control at 320 g/ha (Abutilon theophrasti [2]) | pest or weed control at 80 g/ha (Veronica persica [3]) | pest or weed control at 80 g/ha (Abutilon theophrasti [4])

Cc1c(C(=O)N(C(=O)c2ccc(C(F)(F)F)c(N)c2C)c2nnnn2C)ccc(C(F)(F)F)c1N [1-447]
≥ 80%: pest or weed control at 320 g/ha (Veronica persica [1]) | pest or weed control at 320 g/ha (Abutilon theophrasti [2]) | pest or weed control at 80 g/ha (Veronica persica [3]) | pest or weed control at 80 g/ha (Abutilon theophrasti [4])

Cc1c(C(=O)N(C(=O)c2ccc(C(F)(F)F)c(N(C)C)c2C)c2nnnn2C)ccc(C(F)(F)F)c1N(C)C [1-448]
≥ 80%: pest or weed control at 320 g/ha (Veronica persica [1]) | pest or weed control at 320 g/ha (Abutilon theophrasti [2]) | pest or weed control at 80 g/ha (Veronica persica [3]) | pest or weed control at 80 g/ha (Abutilon theophrasti [4])

CNc1c(C(F)(F)F)ccc(C(=O)N(C(=O)c2ccc(C(F)(F)F)c(NC)c2C)c2nnnn2C)c1C [1-449]
≥ 80%: pest or weed control at 320 g/ha (Veronica persica [1]) | pest or weed control at 320 g/ha (Abutilon theophrasti [2]) | pest or weed control at 80 g/ha (Veronica persica [3]) | pest or weed control at 80 g/ha (Abutilon theophrasti [4])

CCOC(=O)c1c(SC)ccc(C(=O)N(C(=O)c2ccc(SC)c(C(=O)OCC)c2C)c2nnnn2C)c1C [1-453, 3-(ethoxycarbonyl)-2-methyl-4-(methylsulfanyl)-N-(3-(ethoxycarbonyl)-2-methyl-4-(methylsulfanyl)benzoyl)-N-(1-methyltetrazol-5-yl)benzamide]
≥ 80%: pest or weed control at 80 g/ha (Veronica persica [3]) | pest or weed control at 80 g/ha (Abutilon theophrasti [4])

CSc1c(N(C)C)ccc(C(=O)N(C(=O)c2ccc(N(C)C)c(SC)c2C)c2nnnn2C)c1C [1-454]
≥ 80%: pest or weed control at 320 g/ha (Veronica persica [1]) | pest or weed control at 320 g/ha (Abutilon theophrasti [2])

CCOc1ccc(C(=O)N(C(=O)c2ccc(OCC)c(SC)c2C)c2nnnn2C)c(C)c1SC [1-457]
≥ 80%: pest or weed control at 80 g/ha (Veronica persica [3]) | pest or weed control at 80 g/ha (Abutilon theophrasti [4])

CSc1c(OCC(F)(F)F)ccc(C(=O)N(C(=O)c2ccc(OCC(F)(F)F)c(SC)c2C)c2nnnn2C)c1C [1-458]
≥ 80%: pest or weed control at 320 g/ha (Veronica persica [1]) | pest or weed control at 320 g/ha (Abutilon theophrasti [2])

CSc1cc(C)cc(C(=O)N(C(=O)c2cc(C)cc(SC)c2C)c2nnnn2C)c1C [1-460]
≥ 80%: pest or weed control at 80 g/ha (Veronica persica [3]) | pest or weed control at 80 g/ha (Abutilon theophrasti [4])

CCOc1c(C(=O)N(C(=O)c2ccc(C(F)(F)F)c(SC)c2OCC)c2nnnn2C)ccc(C(F)(F)F)c1SC [1-471]
≥ 80%: pest or weed control at 320 g/ha (Veronica persica [1]) | pest or weed control at 320 g/ha (Abutilon theophrasti [2]) | pest or weed control at 80 g/ha (Veronica persica [3]) | pest or weed control at 80 g/ha (Abutilon theophrasti [4])

CCOc1c(C(=O)N(C(=O)c2ccc(C(F)(F)F)c(S(C)(=O)=O)c2OCC)c2nnnn2C)ccc(C(F)(F)F)c1S(C)(=O)=O [1-472]
≥ 80%: pest or weed control at 320 g/ha (Veronica persica [1]) | pest or weed control at 320 g/ha (Abutilon theophrasti [2]) | pest or weed control at 80 g/ha (Veronica persica [3]) | pest or weed control at 80 g/ha (Abutilon theophrasti [4])

Cc1nonc1N(C(=O)c1ccc(C(F)(F)F)c([S+](C)[O-])c1C)C(=O)c1ccc(C(F)(F)F)c([S+](C)[O-])c1C (centres unmarked) [4-144]
≥ 80%: pest or weed control at 80 g/ha (Veronica persica [3]) | pest or weed control at 80 g/ha (Abutilon theophrasti [4])

CC[S+]([O-])c1c(S(C)(=O)=O)ccc(C(=O)N(C(=O)c2ccc(S(C)(=O)=O)c([S+]([O-])CC)c2C)c2nonc2C)c1C (centres unmarked) [4-188]
≥ 80%: pest or weed control at 320 g/ha (Veronica persica [1]) | pest or weed control at 320 g/ha (Abutilon theophrasti [2]) | pest or weed control at 80 g/ha (Veronica persica [3]) | pest or weed control at 80 g/ha (Abutilon theophrasti [4])

CC(=O)N(C(=O)c1ccc(C(F)(F)F)cc1S(C)(=O)=O)c1nnnn1C [13-001, 2-(methylsulfonyl)-4-trifluoromethyl-N-acetyl-N-(1-methyltetrazol-5-yl)benzamide]
≥ 80%: pest or weed control at 320 g/ha (Veronica persica [1]) | pest or weed control at 320 g/ha (Abutilon theophrasti [2]) | pest or weed control at 80 g/ha (Veronica persica [3]) | pest or weed control at 80 g/ha (Abutilon theophrasti [4])
